Consider one molecule from patent US20140147528A1, “GARLIC FORMULATION AND A PROCESS FOR PREPARING THE SAME FOR TREATMENT OF DIABETES” (priority 2012, published 2014).

Assay type in all cases: in vivo, rat
The subject of assay [1] is STZ induced diabetic rats. Put plainly: Blood glucose in STZ induced diabetic rats (glucometer, tail vein). The note with it: Glibenclamide 10 mg/kg p.o. daily, n=6. On the procedure:
(§1) The garlic tablet at the said dosages was subjected to efficacy studies in diabetic animal models. For the efficacy studies on diabetes, studies were carried out using male Wistar albino rats (150-200 g). The animals were grouped and housed in polyacrylic cages with not more than six animals per cage and maintained under standard laboratory conditions (temperature 25°±2° C.) with dark and light cycle (12/12 h). The animals were fed with standard pellet diet supplied by Hindustan Lever Ltd., India and fresh water ad libitum. All the animals were acclimatized to laboratory condition for a week before commencement of experiment. […] were divided into five groups for further experiments.
(§2) Rats were randomly allocated to five groups. Diabetes was induced by a single intraperitoneal injection of 120 mg/kg of Streptozotocin (STZ) in citrate buffer (0.1 M, pH 4.5). Group I consisted of normal healthy rats that were administered 1 ml/kg of 0.5% carboxy methylcellulose (CMC) solution orally. Group II consisted of diabetic rats used as control and were administered orally 1 ml/kg of 0.5% carboxy methylcellulose solution. Groups III consisted of diabetic rats treated daily with oral administration of 10 mg/kg of glibenclamide. Group IV consisted of diabetic rats treated orally with 500 mg of tablet suspended in 0.5% carboxy methylcellulose solution. Group V consisted of diabetic rats treated orally with 1000 mg of tablet suspended in 0.5% carboxy methylcellulose solution.
(§3) All the test drugs were administered for 21 days. Blood glucose levels were estimated on the 1st, 3rd, 7th, 14th and 21st day by collecting tail vein using glucometer during drug treatment. On the 22nd day, the blood was collected for biochemical estimation by sinus puncture under anesthesia. The animals were sacrificed by cervical dislocation and organs were removed for histopathological studies.

A short description of assay [2]: Body weight development in STZ diabetic rats. The note with it: Glibenclamide 10 mg/kg p.o. (Group III), ± S.E, n=6. The procedure: as §1
as §2, with “Group V consisted of diabetic rats treated orally with 1000 mg of tablet suspended in 0.5% carboxy methylcellulose solution.” left out

Assay [3] relates to STZ diabetic rats. Put plainly: Serum total protein, creatinine and uric acid in STZ diabetic rats. The settings on record: Glibenclamide 10 mg/kg p.o. (Group III), 21 days, ± S.E, n=6. The procedure: as §1, §2, §3
Assay [4] has as its system STZ diabetic rats. In words: Hemoglobin, glycosylated hemoglobin and plasma insulin in STZ diabetic rats. The note with it: Glibenclamide 10 mg/kg p.o. (Group III), 21 days, ± S.E, n=6. The procedure: as §1
as §2, with “Group V consisted of diabetic rats treated orally with 1000 mg of tablet suspended in 0.5% carboxy methylcellulose solution.” left out

Assay [5] deals with STZ diabetic rats. Put plainly: Serum AST, ALT and ALP in STZ diabetic rats. The note with it: Glibenclamide 10 mg/kg p.o. (Group III), 21 days, ± S.E, n=6. On the procedure: as §1, §2, §3

Regarding `COc1ccc(Cl)cc1C(=O)NCCc1ccc(S(=O)(=O)NC(=O)NC2CCCCC2)cc1` [Glibenclamide, glibenclamide], in assay [1] (day 1, mean), the “Blood Sugar, 1 Day” value amounted to 290.50 mg/dL. In addition, the “Blood Sugar, 3 Day” value in assay [1] (day 3, mean) is 210.17 mg/dL. The “Blood Sugar, 7 Day” value in assay [1] (day 7, mean) was 157.67 mg/dL. Moreover, the “Blood Sugar, 14 Day” value in assay [1] (day 14, mean) was 124.50 mg/dL. The “Blood Sugar, 21 Day” value in assay [1] (day 21, mean) was found to be 113.17 mg/dL. Further, in assay [2] (21 days), the “Body Weight Final” value is listed as 161.13 ± 2.14^b* g. Besides, the “Body Weight Initial” value in assay [2] worked out at 163.6 ± 1.42 g. In addition, in the assay on STZ diabetic rats [3], the Creatinine is reported as 1.04 ± 0.01^b** mg/dl, the Protein is listed as 126.4 ± 2.84^b*** mg/dl and the Uric acid was 1.57 ± 0.06^b*** mg/dl. Further, in the assay with STZ diabetic rats [4], the HBA1C is 0.17 ± 0.008^b*** % Hb and the “Plasma Insulin” value is listed as 16.4 ± 0.27^b*** μU/ml. Also, in the assay on STZ diabetic rats [5], the ALP is listed as 171.9 ± 4.07 ^b*** μmoles of phenol liberated/min/mg of protein, the ALT is given as 56.4 ± 1.54 ^b*** μmoles of pyruvate/h/mg/of protein and the AST was 161.0 ± 64.0 ^b*** μmoles of pyruvate/h/mg/of protein.
